# Laboratory results taken from ChEMBL document CHEMBL3763061, “Inhibition of cancer cell invasion by new ((3,4-dihydroxy benzylidene)hydrazinyl)pyridine-3-sulfonamide analogs” (2016).
# Calls of active or inactive are those of the source. No cut-off for these calls is given here.
# Tests used:
# A-375 [1] = experiment: Cytotoxicity against human A375 cells assessed as growth inhibition at 10 uM after 24 hrs by MTT assay relative to control; format: functional; conditions: A-375, 24 h, read-out: GI
# MDA-MB-231 [2] = experiment: Cytotoxicity against human MDA-MB-231 cells assessed as growth inhibition at 10 uM after 24 hrs by MTT assay relative to control; format: functional; conditions: MDA-MB-231, 24 h, read-out: GI
# A-375 [3] = experiment: Inhibition of vimentin expression in human A375 cells; format: functional, cell-based
# A-375 [4] = experiment: Inhibition of fibronectin expression in human A375 cells; format: functional, cell-based
# A-375 [5] = experiment: Inhibition of N-cadherin expression in human A375 cells; format: functional, cell-based
# MDA-MB-231 [6] = experiment: Inhibition of alpha-smooth muscle actin expression in human MDA-MB-231 cells; format: functional, cell-based
# MDA-MB-231 [7] = experiment: Inhibition of Rab27a expression in human MDA-MB-231 cells; format: functional, cell-based
# MDA-MB-231 [8] = experiment: Inhibition of collagen expression in human MDA-MB-231 cells; format: functional, cell-based
# MDA-MB-231 [9] = experiment: Inhibition of vimentin expression in human MDA-MB-231 cells; format: functional, cell-based
# MDA-MB-231 [10] = experiment: Inhibition of fibronectin expression in human MDA-MB-231 cells; format: functional, cell-based
# MDA-MB-231 [11] = experiment: Inhibition of N-cadherin expression in human MDA-MB-231 cells; format: functional, cell-based
# A-375 [12] = experiment: Antiinvasive activity against human A375 cells assessed as inhibition of tumor invasion by transwell invasion assay; format: functional, cell-based
# MDA-MB-231 [13] = experiment: Antiinvasive activity against human MDA-MB-231 assessed as inhibition of tumor invasion cells by transwell invasion assay; format: functional, cell-based
# A-375 [14] = experiment: Antimigratory activity against human A375 cells assessed as inhibition of cell migration by wound scratch assay; format: functional, cell-based
# MDA-MB-231 [15] = experiment: Antimigratory activity against human MDA-MB-231 cells assessed as density of migrated cells in scratched areas by wound scratch assay; format: functional, cell-based
# A-375 [16] = experiment: Inhibition of collagen expression in human A375 cells; format: functional, cell-based
# A-375 [17] = experiment: Inhibition of alpha-smooth muscle actin expression in human A375 cells; format: functional, cell-based
# A-375 [18] = experiment: Inhibition of Rab27a expression in human A375 cells; format: functional, cell-based
structure (smiles),measurement,setting,value
O=S(=O)(NCc1cccc2ccccc12)c1ccc(N/N=C/c2ccc(O)c(O)c2)nc1,inhibition of growth at 10 µM,A-375 [1],-13.8%
same,inhibition of growth at 10 µM,MDA-MB-231 [2],-21%
O=S(=O)(Nc1cccc(Cl)c1)c1ccc(N/N=C/c2ccc(O)c(O)c2)nc1,inhibition,A-375 [3],Active
same,inhibition,A-375 [4],inactive
same,inhibition,A-375 [5],Active
same,inhibition,MDA-MB-231 [6],inactive
same,inhibition,MDA-MB-231 [7],Active
same,inhibition,MDA-MB-231 [8],inactive
same,inhibition,MDA-MB-231 [9],Active
same,inhibition,MDA-MB-231 [10],inactive
same,inhibition,MDA-MB-231 [11],Active
same,inhibition,A-375 [12],Active
same,inhibition,MDA-MB-231 [13],Active
same,inhibition,A-375 [14],Active
same,Activity,MDA-MB-231 [15],Active
same,inhibition of growth at 10 µM,A-375 [1],71.7%
same,inhibition of growth at 10 µM,MDA-MB-231 [2],26.3%
same,inhibition,A-375 [16],inactive
same,inhibition,A-375 [17],inactive
same,inhibition,A-375 [18],Active
CN1CCN(S(=O)(=O)c2ccc(N/N=C/c3ccc(O)c(O)c3)nc2)CC1,inhibition of growth at 10 µM,A-375 [1],1.29%
same,inhibition of growth at 10 µM,MDA-MB-231 [2],2.1%
CN(C)S(=O)(=O)c1ccc(N/N=C/c2ccc(O)c(O)c2)nc1,inhibition of growth at 10 µM,A-375 [1],1.44%
same,inhibition of growth at 10 µM,MDA-MB-231 [2],4.81%
C[C@@H](NS(=O)(=O)c1ccc(N/N=C/c2ccc(O)c(O)c2)nc1)C1CCCCC1,inhibition of growth at 10 µM,A-375 [1],3.45%
same,inhibition of growth at 10 µM,MDA-MB-231 [2],-25.8%
COCCNS(=O)(=O)c1ccc(N/N=C/c2ccc(O)c(O)c2)nc1,inhibition of growth at 10 µM,A-375 [1],-11.4%
same,inhibition of growth at 10 µM,MDA-MB-231 [2],-9.95%
O=S(=O)(Nc1ccc(O)cc1)c1ccc(N/N=C/c2ccc(O)c(O)c2)nc1,inhibition of growth at 10 µM,A-375 [1],-15.1%
same,inhibition of growth at 10 µM,MDA-MB-231 [2],-1.92%
O=S(=O)(c1ccc(N/N=C/c2ccc(O)c(O)c2)nc1)N1CCc2ccccc2C1,inhibition,A-375 [3],Active
same,inhibition,A-375 [4],inactive
same,inhibition,A-375 [5],inactive
same,inhibition,MDA-MB-231 [6],inactive
same,inhibition,MDA-MB-231 [8],inactive
same,inhibition,MDA-MB-231 [9],Active
same,inhibition,MDA-MB-231 [10],inactive
same,inhibition,MDA-MB-231 [11],inactive
same,inhibition,A-375 [12],inactive
same,inhibition,MDA-MB-231 [13],inactive
same,inhibition,A-375 [14],inactive
same,Activity,MDA-MB-231 [15],inactive
same,inhibition of growth at 10 µM,A-375 [1],8.41%
same,inhibition of growth at 10 µM,MDA-MB-231 [2],14.9%
same,inhibition,A-375 [16],inactive
same,inhibition,A-375 [17],inactive
O=S(=O)(c1ccc(N/N=C/c2ccc(O)c(O)c2)nc1)N1CCCCC1,Activity,MDA-MB-231 [15],Active
same,inhibition of growth at 10 µM,A-375 [1],5.06%
same,inhibition of growth at 10 µM,MDA-MB-231 [2],-15.6%
CN(Cc1ccccc1)S(=O)(=O)c1ccc(N/N=C/c2ccc(O)c(O)c2)nc1,inhibition,A-375 [3],Active
same,inhibition,A-375 [4],Active
same,inhibition,A-375 [5],Active
same,inhibition,MDA-MB-231 [6],Active
same,inhibition,MDA-MB-231 [7],Active
same,inhibition,MDA-MB-231 [8],Active
same,inhibition,MDA-MB-231 [9],Active
same,inhibition,MDA-MB-231 [10],Active
same,inhibition,MDA-MB-231 [11],Active
same,inhibition,A-375 [12],Active
same,inhibition,MDA-MB-231 [13],Active
same,inhibition,A-375 [14],Active
same,Activity,MDA-MB-231 [15],Active
same,inhibition of growth at 10 µM,A-375 [1],49.4%
same,inhibition of growth at 10 µM,MDA-MB-231 [2],24.6%
same,inhibition,A-375 [16],Active
same,inhibition,A-375 [17],Active
same,inhibition,A-375 [18],Active
O=S(=O)(c1ccc(N/N=C/c2ccc(O)c(O)c2)nc1)N1CCCC1,Activity,MDA-MB-231 [15],Active
same,inhibition of growth at 10 µM,A-375 [1],-2.01%
same,inhibition of growth at 10 µM,MDA-MB-231 [2],-13.6%
O=S(=O)(c1ccc(N/N=C/c2ccc(O)c(O)c2)nc1)N1CCOCC1,inhibition of growth at 10 µM,A-375 [1],-9.25%
same,inhibition of growth at 10 µM,MDA-MB-231 [2],-5.98%
CCOC(=O)CN(C)S(=O)(=O)c1ccc(N/N=C/c2ccc(O)c(O)c2)nc1,inhibition of growth at 10 µM,A-375 [1],-13.7%
same,inhibition of growth at 10 µM,MDA-MB-231 [2],0.97%
O=S(=O)(c1ccc(N/N=C/c2ccc(O)c(O)c2)nc1)N1CCC(O)CC1,inhibition of growth at 10 µM,A-375 [1],-14.1%
same,inhibition of growth at 10 µM,MDA-MB-231 [2],-15.8%
O=S(=O)(Nc1cc(Cl)ccc1O)c1ccc(N/N=C/c2ccc(O)c(O)c2)nc1,inhibition of growth at 10 µM,A-375 [1],-3.03%
same,inhibition of growth at 10 µM,MDA-MB-231 [2],7.47%
